Columns and labels:
Amaranthus [1] = assay: Post-emergence test; type: in vivo; settings: greenhouse, scored after three weeks; for pest or weed control at 1000 g/ha / % damage, Amaranthus: 1000 g of ai./ha
Method: (§1) Post-emergence Test Solvent: 5 parts by weight of acetone Emulsifier: 1 part by weight of alkylaryl polyglycol ether To produce a suitable preparation of active compound, 1 part by weight of active compound is mixed with the stated amount of solvent, the stated amount of emulsifier is added and the concentrate is diluted with water to the desired concentration. Test plants which have a height of 5-15 cm are sprayed with the preparation of active compound such that the particular amounts of active compounds desired are applied per unit area. The concentration of the spray liquor is chosen so that the particular amounts of active compound desired are applied in 1000 l of water/ha. After three weeks, the degree of damage to the plants is scored visually in % damage in comparison to the untreated control. The Figures Denote: 0%=no effect (like untreated control) 100%=total destruction

Setaria [2] = assay: Post-emergence test; type: in vivo; settings: greenhouse, scored after three weeks; for pest or weed control at 1000 g/ha / % damage, Setaria: 1000 g of ai./ha
Method: as §1

Sinapis = assay: Post-emergence test; type: in vivo; settings: greenhouse, 1000 g of ai./ha, scored after three weeks
Method: as §1

Galium = assay: Post-emergence test; type: in vivo; settings: greenhouse, scored after three weeks
Method: as §1

weeds [3] = assay: Pre-emergence test (summary in text); type: in vivo; settings: result in words
Method: (§2) Solvent: 5 parts by weight of acetone
(§3) Emulsifier: 1 part by weight of alkylaryl polyglycol ether
(§4) To produce a suitable preparation of active compound, 1 part by weight of active compound is mixed with the stated amount of solvent, the stated amount of emulsifier is added and the concentrate is diluted with water to the desired concentration.
Seeds of the test plants are sown in normal soil. After about 24 hours, the soil is watered with the preparation of active compound. The amount of water per unit area is advantageously kept constant. The concentration of active compound in the preparation is immaterial, only the application rate of active compound per unit area matters.
After three weeks, the degree of damage to the plants is scored visually in % damage in comparison to the development of the untreated control.
(§5) 0%=no effect (like untreated control)

weeds [4] = assay: Post-emergence test (summary in text); type: in vivo; settings: result in words
Method: as §2, §3, §4
Test plants which have a height of 5-15 cm are sprayed with the preparation of active compound such that the particular amounts of active compounds desired are applied per unit area. The concentration of the spray liquor is chosen so that the particular amounts of active compound desired are applied in 1000 l of water/ha.
After three weeks, the degree of damage to the plants is scored visually in % damage in comparison to the untreated control.
as §5

Amaranthus [5] = assay: Pre-emergence test; type: in vivo; settings: greenhouse, scored after three weeks
Method: (§6) Pre-emergence Test Solvent: 5 parts by weight of acetone Emulsifier: 1 part by weight of alkylaryl polyglycol ether To produce a suitable preparation of active compound, 1 part by weight of active compound is mixed with the stated amount of solvent, the stated amount of emulsifier is added and the concentrate is diluted with water to the desired concentration. Seeds of the test plants are sown in normal soil. After about 24 hours, the soil is watered with the preparation of active compound. The amount of water per unit area is advantageously kept constant. The concentration of active compound in the preparation is immaterial, only the application rate of active compound per unit area matters. After three weeks, the degree of damage to the plants is scored visually in % damage in comparison to the development of the untreated control. The figures denote: 0%=no effect (like untreated control) 100%=total destruction

Cotton = assay: Pre-emergence test; type: in vivo; settings: greenhouse, 500 g of ai./ha, scored after three weeks
Method: as §6

Digitaria = assay: Pre-emergence test; type: in vivo; settings: greenhouse, scored after three weeks
Method: as §6

Echinochloa = assay: Pre-emergence test; type: in vivo; settings: greenhouse, scored after three weeks
Method: as §6

Polygonum = assay: Pre-emergence test; type: in vivo; settings: greenhouse, scored after three weeks
Method: as §6

Veronica = assay: Pre-emergence test; type: in vivo; settings: greenhouse, scored after three weeks
Method: as §6

Wheat = assay: Pre-emergence test; type: in vivo; settings: greenhouse, scored after three weeks
Method: as §6

Setaria [6] = assay: Pre-emergence test; type: in vivo; settings: greenhouse, 1000 g of ai./ha, scored after three weeks
Method: as §6

Solanum = assay: Pre-emergence test; type: in vivo; settings: greenhouse, 1000 g of ai./ha, scored after three weeks
Method: as §6

Alopecurus = assay: Post-emergence test; type: in vivo; settings: greenhouse, 1000 g of ai./ha, scored after three weeks
Method: as §1

Maize = assay: Post-emergence test; type: in vivo; settings: greenhouse, 1000 g of ai./ha, scored after three weeks
Method: as §1

Abutilon = assay: Post-emergence test; type: in vivo; settings: greenhouse, 1000 g of ai./ha, scored after three weeks
Method: as §1

Avena fatua = assay: Post-emergence test; type: in vivo; settings: greenhouse, 1000 g of ai./ha, scored after three weeks
Method: as §1

[7] = Amaranthus, 504 h, read-out: % damage, Amaranthus
[8] = Setaria, 504 h, read-out: % damage, Setaria

COCc1nc(NC(C)=O)nc(NC(C)c2ccc(SOC)cc2)n1 (centres unmarked)
pest or weed control at 1000 g/ha (Amaranthus [1]; [7]): 100% | pest or weed control at 1000 g/ha (Setaria [2]; [8]): 100% | % damage, Sinapis (Sinapis): 100%

COSc1ccc(C(C)Nc2nc(N)nc(C(C)Cl)n2)cc1 (centres unmarked)
pest or weed control at 1000 g/ha (Amaranthus [1]; [7]): 100% | pest or weed control at 1000 g/ha (Setaria [2]; [8]): 100% | % damage, Sinapis (Sinapis): 100%

COSc1ccc(C(C)Nc2nc(NC(C)=O)nc(C(Cl)Cl)n2)cc1 (centres unmarked)
pest or weed control at 500 g/ha (Amaranthus [1]; Amaranthus, 504 h, 500 g of ai./ha, read-out: % damage, Amaranthus): 100% | % damage, Galium (Galium; 500 g of ai./ha): 100% | pest or weed control at 500 g/ha (Setaria [2]; Setaria, 504 h, 500 g of ai./ha, read-out: % damage, Setaria): 90%

CC(F)c1nc(N)nc(NC(C)c2ccc(Cl)cc2)n1 (centres unmarked) [Example 13]
activity against weeds (weeds [3]): strong activity | activity against weeds (weeds [4]): strong activity

CC(F)c1nc(N)nc(NC(C)c2ccc(Cl)cc2)n1 (centres unmarked) [Example 14]
activity against weeds (weeds [3]): strong activity

CC(Nc1nc(N)nc(C(C)(C)F)n1)c1ccc(Cl)cc1 (centres unmarked) [Example 16]
activity against weeds (weeds [3]): strong activity | activity against weeds (weeds [4]): strong activity

CC(Nc1nc(N)nc(C(C)(C)F)n1)c1ccc(Cl)cc1 (centres unmarked) [Example 22]
activity against weeds (weeds [3]): strong activity

CC(Nc1nc(N)nc(C(Cl)Cl)n1)c1ccc(Cl)cc1 (centres unmarked) [Example 149]
activity against weeds (weeds [3]): strong activity | melting point: 152 °C

CC(Cl)c1nc(N)nc(NC(C)c2ccc(Cl)cc2)n1 (centres unmarked) [Example 157]
activity against weeds (weeds [3]): strong activity

CC(Nc1nc(N)nc(C(C)(Cl)Cl)n1)c1ccc(Cl)cc1 (centres unmarked) [Example 159]
activity against weeds (weeds [3]): strong activity

CC(=O)Nc1nc(NC(C)c2ccc(Cl)cc2)nc(C(C)(Cl)Cl)n1 (centres unmarked) [Example 160]
activity against weeds (weeds [3]): strong activity | melting point: 118 °C

CC(Nc1nc(N)nc(C(Cl)Cl)n1)c1ccc(Cl)cc1 (centres unmarked) [Example 168]
activity against weeds (weeds [4]): strong activity | melting point: 133 °C

CCc1nc(NC(C)=O)nc(NC(C)c2ccc(Cl)cc2)n1 (centres unmarked) [Example 173]
activity against weeds (weeds [4]): strong activity | melting point: 182 °C

CC(=O)Nc1nc(NC(C)c2ccc(Cl)cc2)nc(C(Cl)Cl)n1 (centres unmarked) [Example 175]
activity against weeds (weeds [4]): strong activity | melting point: 131 °C

CC(=O)Nc1nc(NC(C)c2ccc(Cl)cc2)nc(C(C)Cl)n1 (centres unmarked) [Example 177]
activity against weeds (weeds [4]): strong activity | melting point: 110 °C

COCc1nc(NC(C)=O)nc(NC(C)c2ccc(Cl)cc2)n1 (centres unmarked) [Example 178]
activity against weeds (weeds [4]): strong activity | melting point: 155 °C

CC(=O)Nc1nc(NC(C)c2ccc(Cl)cc2)nc(C(F)C(F)(F)F)n1 (centres unmarked) [drawing 97]
% damage, Amaranthus (Amaranthus [5]; 500 g of ai./ha): 100% | % damage, Cotton (Cotton): 0% | % damage, Digitaria (Digitaria; 500 g of ai./ha): 80% | % damage, Echinochloa (Echinochloa; 500 g of ai./ha): 95% | % damage, Polygonum (Polygonum; 500 g of ai./ha): 100% | % damage, Veronica (Veronica; 500 g of ai./ha): 100% | % damage, Wheat (Wheat; 500 g of ai./ha): 0%

CC(Nc1nc(N)nc(C(F)C(F)(F)F)n1)c1ccc(Cl)cc1 (centres unmarked) [drawing 101]
% damage, Amaranthus (Amaranthus [5]; 1000 g of ai./ha): 100% | % damage, Digitaria (Digitaria; 1000 g of ai./ha): 100% | % damage, Echinochloa (Echinochloa; 1000 g of ai./ha): 100% | % damage, Polygonum (Polygonum; 1000 g of ai./ha): 100% | % damage, Setaria (Setaria [6]): 100% | % damage, Solanum (Solanum): 100% | % damage, Veronica (Veronica; 1000 g of ai./ha): 100% | % damage, Wheat (Wheat; 1000 g of ai./ha): 0%

CC(=O)Nc1nc(NC(C)c2ccc(Cl)cc2)nc(C(F)C(F)(F)F)n1 (centres unmarked) [drawing 102]
% damage, Amaranthus (Amaranthus [5]; 1000 g of ai./ha): 100% | % damage, Digitaria (Digitaria; 1000 g of ai./ha): 100% | % damage, Echinochloa (Echinochloa; 1000 g of ai./ha): 100% | % damage, Polygonum (Polygonum; 1000 g of ai./ha): 100% | % damage, Setaria (Setaria [6]): 100% | % damage, Solanum (Solanum): 100% | % damage, Veronica (Veronica; 1000 g of ai./ha): 100% | % damage, Wheat (Wheat; 1000 g of ai./ha): 0%

CC(=O)Nc1nc(NC(C)c2ccc(Cl)cc2)nc(C(C)(Cl)Cl)n1 (centres unmarked) [drawing 103]
% damage, Amaranthus (Amaranthus [5]; 1000 g of ai./ha): 100% | % damage, Digitaria (Digitaria; 1000 g of ai./ha): 100% | % damage, Echinochloa (Echinochloa; 1000 g of ai./ha): 100% | % damage, Polygonum (Polygonum; 1000 g of ai./ha): 100% | % damage, Setaria (Setaria [6]): 95% | % damage, Solanum (Solanum): 100% | % damage, Veronica (Veronica; 1000 g of ai./ha): 100% | % damage, Wheat (Wheat; 1000 g of ai./ha): 0%

CC(Nc1nc(N)nc(Cl)n1)c1ccc(Cl)cc1 (centres unmarked) [drawing 106]
% damage, Alopecurus (Alopecurus): 80% | pest or weed control at 1000 g/ha (Amaranthus [1]; [7]): 100% | % damage, Maize (Maize): 20% | pest or weed control at 1000 g/ha (Setaria [2]; [8]): 90%

CC(Nc1nc(N)nc(Cl)n1)c1ccc(Cl)cc1 (centres unmarked) [drawing 107]
% damage, Abutilon (Abutilon): 100% | % damage, Alopecurus (Alopecurus): 100% | % damage, Amaranthus (Amaranthus [1]): 100% | % damage, Avena fatua (Avena fatua): 100% | % damage, Setaria (Setaria [2]): 100% | % damage, Sinapis (Sinapis): 100%

CC(Nc1nc(N)nc(Cl)n1)c1ccc(Cl)cc1 (centres unmarked) [drawing 108]
% damage, Abutilon (Abutilon): 100% | % damage, Alopecurus (Alopecurus): 70% | % damage, Amaranthus (Amaranthus [1]): 100% | % damage, Avena fatua (Avena fatua): 80% | % damage, Setaria (Setaria [2]): 100% | % damage, Sinapis (Sinapis): 100%

CC(Nc1nc(N)nc(C(F)(F)F)n1)c1ccc(Cl)cc1 (centres unmarked) [drawing 109]
% damage, Abutilon (Abutilon): 100% | % damage, Alopecurus (Alopecurus): 100% | pest or weed control at 1000 g/ha (Amaranthus [1]; [7]): 100% | % damage, Avena fatua (Avena fatua): 100% | pest or weed control at 1000 g/ha (Setaria [2]; [8]): 100% | % damage, Sinapis (Sinapis): 100%

CC(Nc1nc(N)nc(C(C)(C)F)n1)c1ccc(Cl)cc1 (centres unmarked) [drawing 110]
% damage, Abutilon (Abutilon): 100% | % damage, Alopecurus (Alopecurus): 90% | pest or weed control at 1000 g/ha (Amaranthus [1]; [7]): 100% | % damage, Avena fatua (Avena fatua): 95% | pest or weed control at 1000 g/ha (Setaria [2]; [8]): 100% | % damage, Sinapis (Sinapis): 100%

COCc1nc(NC(C)=O)nc(NC(C)c2ccc(SC)cc2)n1 (centres unmarked) [drawing 143]
pest or weed control at 1000 g/ha (Amaranthus [1]; [7]): 100% | % damage, Maize (Maize): 0% | pest or weed control at 1000 g/ha (Setaria [2]; [8]): 100% | % damage, Sinapis (Sinapis): 100%

CC(=O)Nc1nc(NC(C)c2ccc(Cl)cc2)nc(C(Cl)Cl)n1 (centres unmarked) [drawing 148]
pest or weed control at 1000 g/ha (Amaranthus [1]; [7]): 100% | % damage, Avena fatua (Avena fatua): 70% | % damage, Galium (Galium; 1000 g of ai./ha): 70% | pest or weed control at 1000 g/ha (Setaria [2]; [8]): 100%
